The record followed here is ChEMBL document CHEMBL1150180, “Studies on Cytotoxic Constituents in Pericarps of Mallotus japonicus, V. Three New Phloroglucinol Derivatives, Butyrylmallotochromanol, Isobutyrylmallotochromanol, and Mallotojaponol” (1990).

Each structure is given as a SMILES string. Converted amounts (≈) assume the structure as drawn.

The test system of this assay is KB. The experiment in a line: Cytotoxicity against human KB cells. It is filed as functional. The settings on record: read-out: ED50 (the source's name).
For the compound `CCCC(=O)c1c(OC(C)=O)c(Cc2c(OC)c(C)c(OC(C)=O)c(C(C)=O)c2OC(C)=O)c(OC(C)=O)c2c1OC(C)(C)C(OC(C)=O)C2` (configuration not stated), the EC50 was 2.8 µg/mL (≈ 4.01 µM). For `COc1c(C)c(OC(C)=O)c(C(C)=O)c(OC(C)=O)c1Cc1c(OC(C)=O)c2c(c(C(=O)C(C)C)c1OC(C)=O)OC(C)(C)C(OC(C)=O)C2` (configuration not stated) the value was 4.5 µg/mL (≈ 6.44 µM). Next, `COc1c(C)c(OC(C)=O)c(C(C)=O)c(OC(C)=O)c1Cc1c(OC(C)=O)c(CC(OC(C)=O)C(C)(C)OC(C)=O)c(OC(C)=O)c(C(C)=O)c1OC(C)=O` (configuration not stated): 22.5 µg/mL (≈ 29.1 µM). For `CCCC(=O)c1c(O)c(Cc2c(O)c(C(C)=O)c(O)c(C)c2OC)c(O)c2c1OC(C)(C)C(O)C2` (configuration not stated) [BUTYRYLMALLOTOCHROMANOL], the EC50 amounted to 13.5 µg/mL (≈ 27.6 µM). Next, `COc1c(C)c(O)c(C(C)=O)c(O)c1Cc1c(O)c2c(c(C(=O)C(C)C)c1O)OC(C)(C)C(O)C2` (configuration not stated) [ISOBUTYRYLMALLOTOCHROMANOL]: 14.6 µg/mL (≈ 29.9 µM); `COc1c(C)c(O)c(C(C)=O)c(O)c1Cc1c(O)c2c(c(C(C)=O)c1O)OC(C)(C)C(O)C2` (configuration not stated) [MALLOTOCHROMANOL]: 21 µg/mL (≈ 45.6 µM); `COc1c(C)c(O)c(C(C)=O)c(O)c1Cc1c(O)c(CC(O)C(C)(C)O)c(O)c(C(C)=O)c1O` (configuration not stated) [MALLOTOJAPONOL]: 22 µg/mL (≈ 46 µM).
